The subject of one assay is Aldehyde reductase. Put plainly: Amount of NADH generated from polyol substrates by aldehyde reductase (Example 3). The class given is biochemical, Candida. The note with it: substrate 100 mmol/L; NAD+ 1.3 mg/mL; enzyme 2.5 μ/mL; 25° C.; relative to alcohol dehydrogenase with ethylene glycol = 100. The source says: (§1) To be more specific, an alcohol dehydrogenase and an aldehyde reductase were allow to act with each substrate and the amount of NADH generated was comparatively investigated.
(§2) Individual relative values are indicated as relative values by assuming the amount of NADH generated from action of the alcohol dehydrogenase with ethylene glycol to be 100.

The target in another assay is T1, Alcohol dehydrogenase (Saccharomyces cerevisiae, UniProt P00330).
T1 construct: purchased Wako Pure Chemical Industries, Ltd
T1 sequence (P00330 1-348): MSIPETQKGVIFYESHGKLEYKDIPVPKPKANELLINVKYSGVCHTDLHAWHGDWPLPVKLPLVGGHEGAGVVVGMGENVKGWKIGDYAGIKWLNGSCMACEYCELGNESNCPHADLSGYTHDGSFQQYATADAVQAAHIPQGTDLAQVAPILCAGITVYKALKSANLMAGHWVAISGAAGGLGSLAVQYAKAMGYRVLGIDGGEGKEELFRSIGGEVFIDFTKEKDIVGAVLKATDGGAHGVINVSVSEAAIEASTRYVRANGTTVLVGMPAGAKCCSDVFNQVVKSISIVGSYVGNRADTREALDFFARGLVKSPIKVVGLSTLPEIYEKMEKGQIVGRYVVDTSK
Briefly: Amount of NADH generated from polyol substrates by alcohol dehydrogenase (Example 3). The assay is classed as biochemical, yeast. The settings on record: substrate 100 mmol/L; NAD+ 1.3 mg/mL; enzyme 2.5 μ/mL; 25° C.; relative to alcohol dehydrogenase with ethylene glycol = 100.
Source text: as §1, §2

Structures are written as SMILES.

For the molecule `OCCO` [Ethylene glycol, ethylene glycol], in the assay with Aldehyde reductase, the “Amount of reduced coenzyme generated (relative value %), Aldehyde reductase” value (“Amount … (relative value %), Aldehyde reductase” below) is listed as 4.0%. The “Amount of reduced coenzyme generated (relative value %), Alcohol dehydrogenase” value at Alcohol dehydrogenase is 100%.

For `OC[C@@H](O)[C@H](O)[C@@H](O)CO` [Xylitol, xylitol], the “Amount … (relative value %), Aldehyde reductase” value with Aldehyde reductase is on record as 34%. Also, the “Amount of reduced coenzyme generated (relative value %), Alcohol dehydrogenase” value at Alcohol dehydrogenase is 0.4%.

For the molecule `OCC(O)CO` [Glycerol, glycerol], in the assay with Aldehyde reductase, the “Amount … (relative value %), Aldehyde reductase” value is given as 7.0%. For the same molecule, on Alcohol dehydrogenase, the “Amount of reduced coenzyme generated (relative value %), Alcohol dehydrogenase” value was 0.6%.

Consider `OC[C@@H](O)[C@@H](O)[C@H](O)[C@@H](O)CO` [Sorbitol, sorbitol], for which the “Amount … (relative value %), Aldehyde reductase” value in the assay on Aldehyde reductase came out at 100%. Besides, the “Amount of reduced coenzyme generated (relative value %), Alcohol dehydrogenase” value on Alcohol dehydrogenase is on record as 0.7%.

On to `OC[C@@H](O)[C@@H](O)CO` [Erythritol, erythritol], for which, in the assay on Aldehyde reductase, the “Amount … (relative value %), Aldehyde reductase” value amounted to 50%. Also, on Alcohol dehydrogenase, the “Amount of reduced coenzyme generated (relative value %), Alcohol dehydrogenase” value is on record as 6.0%.

Values taken from patent publication US20100311133A1, “ELECTRODE, ENZYME SENSOR USING THE ELECTRODE, FUEL BATTERY, ELECTRONIC DEVICE, AND METHOD FOR DECOMPOSING POLYOL” (SONY CORPORATION, priority 2007, published 2010).
